Assay results from PMC3959874 (European journal of dermatology : EJD, 2013).
Read-outs that look alike come from different tables or passages of the source.

Legend:
CYP1A2 = CYP1A2 (Homo sapiens, UniProt P05177); assay: Cytochrome P450 enzyme assay; format: in vitro ADME; settings: human
CYP2C19 = CYP2C19 (Homo sapiens, UniProt P33261); assay: Cytochrome P450 enzyme assay; format: in vitro ADME; settings: human
CYP2C9 = CYP2C9 (Homo sapiens, UniProt P11712); assay: Cytochrome P450 enzyme assay; format: in vitro ADME; settings: human
CYP2D6 = CYP2D6 (Homo sapiens, UniProt P10635); assay: Cytochrome P450 enzyme assay; format: in vitro ADME; settings: human
CYP3A4 = CYP3A4 (Homo sapiens, UniProt P08684); assay: Cytochrome P450 enzyme assay; format: in vitro ADME; settings: human
Adenosine A1 = Adenosine A1 (Homo sapiens, UniProt P30542); assay: Radioligand binding assay; settings: read-out: Percent inhibition of specific radioligand binding
Adrenergic β1 = Adrenergic β1 (Homo sapiens, UniProt P08588); assay: Radioligand binding assay; settings: read-out: Percent inhibition of specific radioligand binding
[1] = biological target: Androgen (Testosterone) AR (Rattus norvegicus, UniProt P15207); assay: Radioligand binding assay; settings: read-out: Percent inhibition of specific radioligand binding
Bradykinin B1 = Bradykinin B1 (Homo sapiens, UniProt P46663); assay: Radioligand binding assay; settings: read-out: Percent inhibition of specific radioligand binding
Bradykinin B2 = Bradykinin B2 (Homo sapiens, UniProt P30411); assay: Radioligand binding assay; settings: read-out: Percent inhibition of specific radioligand binding
[2] = system: Calcium Channel L-Type, Benzothiazepine; assay: Radioligand binding assay; set-up: species or system rat; settings: 10 μM; 4 °C, 180 min
[3] = system: Calcium Channel L-Type, Dihydropyridine; assay: Radioligand binding assay; set-up: species or system rat; settings: 10 μM; 25 °C, 90 min
Calcium Channel N-Type = Calcium Channel N-Type (Rattus norvegicus, UniProt Q02294); assay: Radioligand binding assay; settings: read-out: Percent inhibition of specific radioligand binding
Cannabinoid CB1 = Cannabinoid CB1 (Homo sapiens, UniProt P21554); assay: Radioligand binding assay; settings: read-out: Percent inhibition of specific radioligand binding
Dopamine D1 = Dopamine D1 (Homo sapiens, UniProt P21728); assay: Radioligand binding assay; settings: read-out: Percent inhibition of specific radioligand binding
Dopamine D4.2 = Dopamine D4.2 (Homo sapiens, UniProt P21917, DEL265-296); assay: Radioligand binding assay; settings: read-out: Percent inhibition of specific radioligand binding
Endothelin ETB = Endothelin ETB (Homo sapiens, UniProt P24530); assay: Radioligand binding assay; settings: read-out: Percent inhibition of specific radioligand binding
[4] = biological target: Epidermal Growth Factor (EG F) (Homo sapiens, UniProt P00533); assay: Radioligand binding assay; settings: read-out: Percent inhibition of specific radioligand binding
Estrogen ERa = Estrogen ERa (Homo sapiens, UniProt P03372); assay: Radioligand binding assay; settings: read-out: Percent inhibition of specific radioligand binding
[5] = system: GABAA, Flunitrazepam, Cent ral; assay: Radioligand binding assay; set-up: species or system rat; settings: 10 μM; 25 °C, 120 min
GABAA, Muscimol, Central = assay: Radioligand binding assay; set-up: species or system rat; settings: 10 μM; 4 °C, 10 min
Glucocorticoid = Glucocorticoid (Homo sapiens, UniProt P04150); assay: Radioligand binding assay; settings: read-out: Percent inhibition of specific radioligand binding
Glutamate, Kainate = assay: Radioligand binding assay; set-up: species or system rat; settings: 10 μM; 4 °C, 60 min
Glutamate, NMDA, Agonism = assay: Radioligand binding assay; set-up: species or system rat; settings: 10 μM; 4 °C, 20 min
Glutamate, NMDA, Glycine = Glutamate, NMDA, Glycine (Rattus norvegicus, UniProt P35439); assay: Radioligand binding assay; settings: read-out: Percent inhibition of specific radioligand binding
[6] = system: Glutamate, NMDA, Phencyclidine; assay: Radioligand binding assay; set-up: species or system rat; settings: 10 μM; 25 °C, 45 min
Histamine H3 = Histamine H3 (Homo sapiens, UniProt Q9Y5N1); assay: Radioligand binding assay; settings: read-out: Percent inhibition of specific radioligand binding
Imidazoline I2, Central = assay: Radioligand binding assay; set-up: species or system rat; settings: 10 μM; 25 °C, 30 min
Interleukin IL-1 = Interleukin IL-1 (Mus musculus, UniProt P13504); assay: Radioligand binding assay; settings: read-out: Percent inhibition of specific radioligand binding
[7] = biological target: Leukotriene, Cysteinyl CysLT 1 (Homo sapiens, UniProt Q9Y271); assay: Radioligand binding assay; settings: read-out: Percent inhibition of specific radioligand binding
Muscarinic M2 = Muscarinic M2 (Homo sapiens, UniProt P08172); assay: Radioligand binding assay; settings: read-out: Percent inhibition of specific radioligand binding
Neuropeptide Y Y2 = Neuropeptide Y Y2 (Homo sapiens, UniProt P49146); assay: Radioligand binding assay; settings: read-out: Percent inhibition of specific radioligand binding
Nicotinic Acetylcholine = assay: Radioligand binding assay; set-up: species or system human; settings: 10 μM; 25 °C, 60 min
[8] = biological target: Nicotinic Acetylcholine a1, Bungarotoxin (Homo sapiens, UniProt P02708+P07510+Q07001); assay: Radioligand binding assay; settings: read-out: Percent inhibition of specific radioligand binding
Opiate 51 (OP1, DOP) = Opiate 51 (OP1, DOP) (Homo sapiens, UniProt P41143); assay: Radioligand binding assay; settings: read-out: Percent inhibition of specific radioligand binding
Phorbol Ester = assay: Radioligand binding assay; set-up: species or system mouse; settings: 10 μM; 25 °C, 60 min
[9] = biological target: Platelet Activating Factor (PA F) (Homo sapiens, UniProt P25105); assay: Radioligand binding assay; settings: read-out: Percent inhibition of specific radioligand binding
Potassium Channel [KATP] = assay: Radioligand binding assay; set-up: species or system human; settings: 10 μM; 25 °C, 120 min
hERG potassium channel = hERG potassium channel (Homo sapiens, UniProt Q12809); assay: Radioligand binding assay; settings: human
Prostanoid EP4 = Prostanoid EP4 (Homo sapiens, UniProt P35408); assay: Radioligand binding assay; settings: read-out: Percent inhibition of specific radioligand binding
Purinergic P2x = assay: Radioligand binding assay; set-up: species or system rabbit; settings: 10 μM; 25 °C, 30 min
Purinergic P2, = assay: Radioligand binding assay; set-up: species or system rat; settings: 10 μM; 25 °C, 60 min
[10] = biological target: Serotonin (5-Hydroxytryptam ine) 5-HT1A (Homo sapiens, UniProt P08908); assay: Radioligand binding assay; settings: read-out: Percent inhibition of specific radioligand binding
[11] = biological target: Serotonin (5-Hydroxytryptam ine) 5-HT2B (Homo sapiens, UniProt P41595); assay: Radioligand binding assay; settings: read-out: Percent inhibition of specific radioligand binding
Thyroid Hormone = assay: Radioligand binding assay; set-up: species or system rat; settings: 10 μM; 4 °C, 18 hrs
Transporter, GABA = Transporter, GABA (Rattus norvegicus, UniProt P23978); assay: Radioligand binding assay; settings: read-out: Percent inhibition of specific radioligand binding
[12] = biological target: Transporter, Norepinephrine (NET) (Homo sapiens, UniProt P23975); assay: Radioligand binding assay; settings: read-out: Percent inhibition of specific radioligand binding
[13] = format: in vivo, mice; settings: for Body weight change after a single intravenous injection of the MTD: 150 mg/kg TMX-202 or 15 mg/kg IMQ i.v. (figure 4)
human PBMC = settings: up to 1 μM; ref [24]; cited from earlier work
[14] = Serum drug concentration after topical skin application; settings: C57BL/6, mouse, serum

CYP2D6, sequence (P10635 whole entry): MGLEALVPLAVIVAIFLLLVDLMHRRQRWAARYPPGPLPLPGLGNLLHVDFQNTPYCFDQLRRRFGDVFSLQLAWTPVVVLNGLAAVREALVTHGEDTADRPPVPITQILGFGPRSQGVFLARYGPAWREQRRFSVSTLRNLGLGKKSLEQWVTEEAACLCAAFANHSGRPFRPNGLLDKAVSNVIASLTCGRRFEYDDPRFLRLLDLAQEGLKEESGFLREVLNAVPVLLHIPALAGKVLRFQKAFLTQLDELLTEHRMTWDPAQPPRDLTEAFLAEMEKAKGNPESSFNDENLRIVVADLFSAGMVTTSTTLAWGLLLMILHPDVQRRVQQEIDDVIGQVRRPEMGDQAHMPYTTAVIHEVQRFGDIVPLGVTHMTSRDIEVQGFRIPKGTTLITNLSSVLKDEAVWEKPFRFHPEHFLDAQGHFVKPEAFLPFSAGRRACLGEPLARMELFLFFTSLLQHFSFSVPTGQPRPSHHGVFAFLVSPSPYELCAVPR
CYP3A4, sequence (P08684 whole entry): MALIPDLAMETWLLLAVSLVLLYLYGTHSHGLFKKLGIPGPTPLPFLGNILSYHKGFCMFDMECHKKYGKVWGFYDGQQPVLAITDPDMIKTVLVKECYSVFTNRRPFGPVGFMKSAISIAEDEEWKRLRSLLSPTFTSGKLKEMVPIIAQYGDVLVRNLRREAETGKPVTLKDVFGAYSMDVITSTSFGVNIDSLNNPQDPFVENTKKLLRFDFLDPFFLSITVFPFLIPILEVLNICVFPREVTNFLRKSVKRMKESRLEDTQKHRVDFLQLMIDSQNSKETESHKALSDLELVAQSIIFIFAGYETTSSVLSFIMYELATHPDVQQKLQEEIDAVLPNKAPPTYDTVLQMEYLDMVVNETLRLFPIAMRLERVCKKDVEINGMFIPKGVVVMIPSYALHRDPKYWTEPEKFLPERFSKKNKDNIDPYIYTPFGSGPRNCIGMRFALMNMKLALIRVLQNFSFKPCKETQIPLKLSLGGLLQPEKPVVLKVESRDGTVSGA
Interleukin IL-1, sequence (P13504 20-576): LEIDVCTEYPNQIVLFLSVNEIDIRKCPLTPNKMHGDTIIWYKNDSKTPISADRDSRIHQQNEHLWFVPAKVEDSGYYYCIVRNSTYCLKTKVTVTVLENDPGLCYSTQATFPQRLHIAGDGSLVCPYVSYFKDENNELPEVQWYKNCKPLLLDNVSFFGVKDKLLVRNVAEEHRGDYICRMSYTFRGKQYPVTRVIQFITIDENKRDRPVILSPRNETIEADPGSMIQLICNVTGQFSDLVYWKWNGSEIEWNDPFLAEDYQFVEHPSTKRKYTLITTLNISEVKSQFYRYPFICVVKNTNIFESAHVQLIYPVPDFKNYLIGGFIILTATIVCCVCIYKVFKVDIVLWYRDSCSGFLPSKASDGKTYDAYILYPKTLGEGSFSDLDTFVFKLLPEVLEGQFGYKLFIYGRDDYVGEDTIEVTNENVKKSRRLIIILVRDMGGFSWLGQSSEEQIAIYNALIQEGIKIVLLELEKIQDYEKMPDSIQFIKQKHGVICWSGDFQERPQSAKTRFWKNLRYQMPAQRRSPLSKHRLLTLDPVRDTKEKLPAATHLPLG
Serotonin (5-Hydroxytryptam ine) 5-HT2B, sequence (P41595 whole entry): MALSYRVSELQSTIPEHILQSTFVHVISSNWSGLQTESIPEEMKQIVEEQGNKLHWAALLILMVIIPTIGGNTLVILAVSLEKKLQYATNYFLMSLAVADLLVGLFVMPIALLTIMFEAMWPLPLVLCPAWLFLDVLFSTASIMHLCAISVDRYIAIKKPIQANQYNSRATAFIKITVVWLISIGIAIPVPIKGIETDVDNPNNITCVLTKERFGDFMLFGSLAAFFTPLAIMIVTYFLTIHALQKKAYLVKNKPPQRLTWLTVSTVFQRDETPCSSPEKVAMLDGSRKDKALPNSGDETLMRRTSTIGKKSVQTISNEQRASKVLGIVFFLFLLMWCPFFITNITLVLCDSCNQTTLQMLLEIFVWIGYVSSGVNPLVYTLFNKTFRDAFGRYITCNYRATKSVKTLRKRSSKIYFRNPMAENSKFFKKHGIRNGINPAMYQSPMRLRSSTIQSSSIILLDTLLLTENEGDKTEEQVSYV
CYP1A2, sequence (P05177 whole entry): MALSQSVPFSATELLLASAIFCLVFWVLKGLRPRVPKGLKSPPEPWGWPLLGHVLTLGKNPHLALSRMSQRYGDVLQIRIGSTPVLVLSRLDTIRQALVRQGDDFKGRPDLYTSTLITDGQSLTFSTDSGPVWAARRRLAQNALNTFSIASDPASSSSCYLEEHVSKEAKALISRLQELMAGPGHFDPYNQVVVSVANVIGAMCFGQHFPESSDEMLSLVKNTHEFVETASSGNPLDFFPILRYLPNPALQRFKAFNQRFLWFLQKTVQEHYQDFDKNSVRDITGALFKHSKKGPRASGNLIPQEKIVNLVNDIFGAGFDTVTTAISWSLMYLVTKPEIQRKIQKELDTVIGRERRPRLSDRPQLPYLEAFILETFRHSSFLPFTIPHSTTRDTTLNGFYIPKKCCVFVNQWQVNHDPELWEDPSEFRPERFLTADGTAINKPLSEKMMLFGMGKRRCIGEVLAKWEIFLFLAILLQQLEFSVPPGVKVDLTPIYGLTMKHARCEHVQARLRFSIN
Glutamate, NMDA, Glycine, sequence (P35439 394-800 limits assumed): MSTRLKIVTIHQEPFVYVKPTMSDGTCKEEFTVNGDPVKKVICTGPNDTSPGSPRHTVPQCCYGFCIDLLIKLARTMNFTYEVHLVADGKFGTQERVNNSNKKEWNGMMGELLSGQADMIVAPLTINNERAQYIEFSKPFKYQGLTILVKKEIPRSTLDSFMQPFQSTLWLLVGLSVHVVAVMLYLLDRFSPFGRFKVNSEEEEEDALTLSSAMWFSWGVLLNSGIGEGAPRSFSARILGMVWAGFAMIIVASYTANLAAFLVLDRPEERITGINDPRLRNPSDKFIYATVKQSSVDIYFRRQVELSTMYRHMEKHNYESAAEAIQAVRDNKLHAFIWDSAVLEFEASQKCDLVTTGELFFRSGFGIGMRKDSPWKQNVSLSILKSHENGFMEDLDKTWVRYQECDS
Leukotriene, Cysteinyl CysLT 1, sequence (Q9Y271 whole entry): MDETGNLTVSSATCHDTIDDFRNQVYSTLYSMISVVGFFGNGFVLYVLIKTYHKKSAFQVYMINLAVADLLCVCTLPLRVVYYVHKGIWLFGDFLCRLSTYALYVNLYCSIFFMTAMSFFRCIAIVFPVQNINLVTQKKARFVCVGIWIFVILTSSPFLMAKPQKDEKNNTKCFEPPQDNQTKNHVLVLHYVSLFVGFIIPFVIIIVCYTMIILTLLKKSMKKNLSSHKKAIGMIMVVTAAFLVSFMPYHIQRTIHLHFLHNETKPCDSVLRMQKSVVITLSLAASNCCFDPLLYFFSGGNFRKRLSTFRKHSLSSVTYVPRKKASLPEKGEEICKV
Epidermal Growth Factor (EG F), sequence (P00533 25-1210): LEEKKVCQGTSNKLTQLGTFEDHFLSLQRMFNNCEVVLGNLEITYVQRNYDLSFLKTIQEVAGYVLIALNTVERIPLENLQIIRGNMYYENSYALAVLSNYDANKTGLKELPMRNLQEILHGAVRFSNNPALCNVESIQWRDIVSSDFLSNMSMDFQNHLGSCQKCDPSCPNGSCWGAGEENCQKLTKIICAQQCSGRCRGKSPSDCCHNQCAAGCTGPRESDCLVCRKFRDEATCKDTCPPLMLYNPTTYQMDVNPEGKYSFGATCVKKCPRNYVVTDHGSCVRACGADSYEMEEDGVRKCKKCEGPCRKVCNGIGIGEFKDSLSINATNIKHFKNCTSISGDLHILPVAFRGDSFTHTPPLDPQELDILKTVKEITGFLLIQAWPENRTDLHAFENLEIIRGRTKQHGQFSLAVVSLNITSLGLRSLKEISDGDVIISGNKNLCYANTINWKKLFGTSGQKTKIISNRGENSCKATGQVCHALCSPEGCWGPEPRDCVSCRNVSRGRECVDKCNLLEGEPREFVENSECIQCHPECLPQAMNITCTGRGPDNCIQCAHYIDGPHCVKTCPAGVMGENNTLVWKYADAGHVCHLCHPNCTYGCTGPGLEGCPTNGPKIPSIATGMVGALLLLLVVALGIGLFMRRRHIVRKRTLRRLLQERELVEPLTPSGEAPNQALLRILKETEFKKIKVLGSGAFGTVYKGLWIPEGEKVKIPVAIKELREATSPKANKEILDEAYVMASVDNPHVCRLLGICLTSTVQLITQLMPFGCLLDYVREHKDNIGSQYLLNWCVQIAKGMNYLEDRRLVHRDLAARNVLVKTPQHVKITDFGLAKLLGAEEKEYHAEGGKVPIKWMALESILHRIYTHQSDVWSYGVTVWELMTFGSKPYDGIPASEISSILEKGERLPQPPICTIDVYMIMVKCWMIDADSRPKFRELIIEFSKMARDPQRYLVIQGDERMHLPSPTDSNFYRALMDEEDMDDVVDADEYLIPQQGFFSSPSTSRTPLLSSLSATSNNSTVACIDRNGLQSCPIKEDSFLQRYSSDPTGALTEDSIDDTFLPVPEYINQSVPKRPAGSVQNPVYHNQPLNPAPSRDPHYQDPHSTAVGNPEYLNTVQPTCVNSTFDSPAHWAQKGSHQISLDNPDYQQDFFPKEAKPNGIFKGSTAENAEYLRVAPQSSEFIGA
Cannabinoid CB1, sequence (P21554 whole entry): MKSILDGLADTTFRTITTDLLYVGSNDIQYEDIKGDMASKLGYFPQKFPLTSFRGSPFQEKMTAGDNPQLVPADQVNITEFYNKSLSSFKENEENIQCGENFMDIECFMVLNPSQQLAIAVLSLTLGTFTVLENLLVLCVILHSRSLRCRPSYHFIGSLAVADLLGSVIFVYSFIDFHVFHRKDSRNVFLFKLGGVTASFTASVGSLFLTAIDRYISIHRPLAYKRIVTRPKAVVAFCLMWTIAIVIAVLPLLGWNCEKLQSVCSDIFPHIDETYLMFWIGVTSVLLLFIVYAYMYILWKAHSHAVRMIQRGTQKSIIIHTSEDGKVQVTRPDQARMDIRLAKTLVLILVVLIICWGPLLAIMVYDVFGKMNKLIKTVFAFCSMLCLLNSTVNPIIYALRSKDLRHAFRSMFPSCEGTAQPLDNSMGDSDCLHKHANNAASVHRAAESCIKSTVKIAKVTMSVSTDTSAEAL

Which results are given for CC(C)Cn1cnc2c(N)nc3ccccc3c21 [IMQ, imiquimod, reference compound]?
inhibition at 30 min, 10 µM (CYP1A2): 66%; inhibition at 45 min, 10 µM (CYP2C19): 10%; inhibition at 45 min, 10 µM (CYP2C9): 3%; inhibition at 45 min, 10 µM (CYP2D6): 29%; inhibition at 30 min, 10 µM (CYP3A4): 1%; inhibition at 10 µM (Adenosine A1): 50%; inhibition at 10 µM (Adrenergic β1): 19%; inhibition at 10 µM [1]: 7%; inhibition at 10 µM (Bradykinin B1): 4%; inhibition at 10 µM (Bradykinin B2): -1%; Percent inhibition of specific radioligand binding [2]: 4%; Percent inhibition of specific radioligand binding [3]: −14%; inhibition at 10 µM (Calcium Channel N-Type): 2%; inhibition at 10 µM (Cannabinoid CB1): -4%; inhibition at 10 µM (Dopamine D1): 66%; inhibition at 10 µM (Dopamine D4.2): 2%; inhibition at 10 µM (Endothelin ETB): 0%; inhibition at 10 µM [4]: -1%; inhibition at 10 µM (Estrogen ERa): 0%; Percent inhibition of specific radioligand binding [5]: 37%; Percent inhibition of specific radioligand binding (GABAA, Muscimol, Central): 19%; inhibition at 10 µM (Glucocorticoid): -2%; Percent inhibition of specific radioligand binding (Glutamate, Kainate): −8%; Percent inhibition of specific radioligand binding (Glutamate, NMDA, Agonism): 2%; inhibition at 10 µM (Glutamate, NMDA, Glycine): -6%; Percent inhibition of specific radioligand binding [6]: 4%; inhibition at 10 µM (Histamine H3): 4%; Percent inhibition of specific radioligand binding (Imidazoline I2, Central): 57%; inhibition at 10 µM (Interleukin IL-1): 5%; inhibition at 10 µM [7]: 10%; inhibition at 10 µM (Muscarinic M2): 3%; inhibition at 10 µM (Neuropeptide Y Y2): 6%; Percent inhibition of specific radioligand binding (Nicotinic Acetylcholine): 3%; inhibition at 10 µM [8]: 7%; inhibition at 10 µM (Opiate 51 (OP1, DOP)): 5%; Percent inhibition of specific radioligand binding (Phorbol Ester): 21%; inhibition at 10 µM [9]: 2%; Percent inhibition of specific radioligand binding (Potassium Channel [KATP]): −5%; inhibition at 60 min, 10 µM (hERG potassium channel): 45%; inhibition at 10 µM (Prostanoid EP4): 6%; Percent inhibition of specific radioligand binding (Purinergic P2x): −7%; Percent inhibition of specific radioligand binding (Purinergic P2,): 10%; inhibition at 10 µM [10]: 19%; inhibition at 10 µM [11]: 45%; Percent inhibition of specific radioligand binding (Thyroid Hormone): −5%; inhibition at 10 µM (Transporter, GABA): 2%; inhibition at 10 µM [12]: 30%; MTD at 8 days ([13]; C57BL/6, mouse, in vivo, iv): 15 mg/kg; MTD (molar) ([13]; C57BL/6 mice, intravenous administration): approximately 62.5 μmoles/kg; Body weight change after a single intravenous injection of the MTD ([13]; Tlr7−/− or Myd88−/− mice): did not result in body weight changes; Body weight change after a single intravenous injection of the MTD ([13]; WT mice): did not result in body weight changes; IFN-γ secretion in human PBMC (human PBMC): does not stimulate IFN-γ secretion; concentration at 1 h [14]: 0.139 ± 0.0612 ng/mL
